According to US20060079550A1, “Amino acid derivatives useful for the treatment of alzheimer's disease” (priority 2001, published 2006):
Where two headings read alike, the source gives them in different places.

Biological target: aspartyl proteases, in particular, beta-secretase
Test: Ki of the compounds listed in Tables 1 and 2 (no method described)
Assay type: biochemical
[1] = Table 1, compounds of formula Ia, W is -(CH2)n-

Compound | Ki [1] | Ki
CC(C)CN([C@@H](CCCCNC(=O)CCc1cccc(N)c1)C(=O)O)S(=O)(=O)c1ccc(N)cc1 [Compound No. 118, Nα-isobutyl-Nα-(4-aminobenzenesulfonyl)-Nε-(3-aminodihydrocinnamoyl)-L-lysine] | 20.5 nM | 
COc1cccc(CCC(=O)NCCCC[C@@H](C(=O)O)N(CC(C)C)S(=O)(=O)c2ccc(N)cc2)c1OC [Compound No. 119, Nα-isobutyl-Nα-(4-aminobenzenesulfonyl)-Nε-(2,3-dimethoxydihydrocinnamoyl)-L-lysine] | 6.2 nM | 
COc1ccc(CCC(=O)NCCCC[C@@H](C(=O)O)N(CC(C)C)S(=O)(=O)c2ccc(N)cc2)cc1 [Compound No. 120, Nα-isobutyl-Nα-(4-aminobenzenesulfonyl)-Nε-(4-methoxydihydrocinnamoyl)-L-lysine] | 12.4 nM | 
CC(C)CN([C@@H](CCCCNC(=O)CCCc1ccccc1)C(=O)O)S(=O)(=O)c1ccc(N)cc1 [Compound No. 121, Nα-isobutyl-Nα-(4-aminobenzenesulfonyl)-Nε-(4-phenylbutanoyl)-L-lysine] | > 300 nM | 
CC(C)CN([C@@H](CCCCNC(=O)CCc1ccccc1N)C(=O)O)S(=O)(=O)c1ccc(N)cc1 [Compound No. 122, Nα-isobutyl-Nα-(4-aminobenzenesulfonyl)-Nε-(2-aminodihydrocinnamoyl)-L-lysine] | > 300 nM | 
COC(=O)[C@H](CCCCNC(=O)OCC1c2ccccc2-c2ccccc21)N(CC(C)C)S(=O)(=O)c1ccc(C)cc1 [Compound No. 123, Nα-isobutyl-Nα-(4-methylbenzenesulfonyl)-Nε-(9-fluorenylmethoxycarbonyl)-L-lysine Methyl Ester] | > 300 nM | 
Cc1ccc(S(=O)(=O)N(CC(C)C)[C@@H](CO)CCCCNC(=O)OCC2c3ccccc3-c3ccccc32)cc1 [Compound No. 124, (2R)-N-isobutyl-N-(4-methylbenzenesulfonylamino)-6-(9-fluorenylmethoxycarboxylamino)-1-hexanol] | 208 nM | 
Cc1ccc(S(=O)(=O)N(CC(C)C)C(CCCCNC(=O)OCC2c3ccccc3-c3ccccc32)C(N)=O)cc1 [Compound No. 125, (2R,2S)-N-isobutyl-N-(4-methylbenzenesulfonylamino)-6-(9-fluorenylmethoxycarboxylamino)-1-hexanamide] | 107 nM | 
Cc1ccc(S(=O)(=O)N(CC(C)C)[C@@H](CCCCNC(=O)CCc2ccc(O)cc2)C(=O)O)cc1 [Compound No. 126, Nα-isobutyl-Nα-(4-methylbenzenesulfonyl)-Nε-(4-hydroxydihydrocinnamoyl)-L-lysine] | > 300 nM | 
Cc1ccc(S(=O)(=O)N(CC(C)C)C(CCCCNC(=O)OCC2c3ccccc3-c3ccccc32)C(=O)NO)cc1 [Compound No. 141, (2R,2S)-N-isobutyl-N-(4-methylbenzenesulfonylamino)-6-(9-fluorenylmethoxycarboxylamino)-1-hydroxylhexamide] | 245 nM | 
Cc1ccc(S(=O)(=O)NCCC[C@H](NC(=O)OCC2c3ccccc3-c3ccccc32)C(=O)O)cc1 [Compound No. 149, Nδ-(4-methylbenzenesulfonyl)-Nα-(9-fluorenylmethoxycarbonyl)-L-ornithine] | 10100 nM | 
CC(C)CN([C@@H](CCCCNC(=O)CSc1ccccc1)C(=O)O)S(=O)(=O)c1ccc([N+](=O)[O-])cc1 [Compound No. 154, Nα-isobutyl-Nα-(4-Tnitrobenzenesulfonyl)-Nε-phenylthioacetyl-L-lysine] | 10.2 nM | 
CC(C)CN([C@@H](CCCCNC(=O)CCc1ccc2c(c1)OCO2)C(=O)O)S(=O)(=O)c1ccc(N)cc1 [Compound No. 155, Nα-isobutyl-Nα-(4-aminobenzenesulfonyl)-Nε-(3,4-methylenedioxydihydrocinnamoyl)-L-lysine] | 15.7 nM | 
COc1cccc(CCC(=O)NCCCC[C@@H](C(=O)O)N(CC(C)C)S(=O)(=O)c2ccc(N)cc2)c1 [Compound No. 156, Nα-isobutyl-Nα-(4-aminobenzenesulfonyl)-Nε-(3-methoxydihydrocinnamoyl)-L-lysine] | 16.7 nM | 
COc1ccccc1CCC(=O)NCCCC[C@@H](C(=O)O)N(CC(C)C)S(=O)(=O)c1ccc(N)cc1 [Compound No. 157, Nα-isobutyl-Nα-(4-aminobenzenesulfonyl)-Nε-(2-methoxydihydrocinnamoyl)-L-lysine] | 18.9 nM | 
CC(C)CN([C@@H](CCCCNC(=O)CCc1ccccc1)C(=O)O)S(=O)(=O)c1ccc(N)cc1 [Compound No. 158, Nα-isobutyl-Nα-(4-aminobenzenesulfonyl)-Nε-dihydrocinnamoyl-L-lysine] | > 300 nM | 
CC(C)CN([C@@H](CCCCNC(=O)COc1ccccc1)C(=O)O)S(=O)(=O)c1ccc([N+](=O)[O-])cc1 [Compound No. 160, Nα-isobutyl-Nα-(4-nitrobenzenesulfonyl)-Nε-phenoxyacetyl-L-lysine] | 24.5 nM | 

Compound | Ki [1] | Ki
COc1ccccc1/C=C/C(=O)NCCCC[C@@H](C(=O)O)N(CC(C)C)S(=O)(=O)c1ccc([N+](=O)[O-])cc1 [Compound No. 161, Nα-isobutyl-Nα-(4-nitrobenzenesulfonyl)-Nε-(trans-2-methoxycinnamoyl)-L-lysine] | > 300 nM | 
COc1cccc(C=CC(=O)NCCCC[C@@H](C(=O)O)N(CC(C)C)S(=O)(=O)c2ccc([N+](=O)[O-])cc2)c1 [Compound No. 162, Nα-isobutyl-Nα-(4-nitrobenzenesulfonyl)-Nε-(3-methoxycinnamoyl)-L-lysine] | > 300 nM | 
CC(C)CN([C@@H](CCCCNC(=O)C=Cc1ccc2c(c1)OCO2)C(=O)O)S(=O)(=O)c1ccc([N+](=O)[O-])cc1 [Compound No. 163, Nα-isobutyl-Nα-(4-nitrobenzenesulfonyl)-Nε-(3,4-methylenedioxycinnamoyl)-L-lysine] | > 300 nM | 
CC(C)CN([C@@H](CCCCNC(=O)/C=C/c1cccnc1)C(=O)O)S(=O)(=O)c1ccc([N+](=O)[O-])cc1 [Compound No. 164, Nα-isobutyl-Nα-(4-nitrobenzenesulfonyl)-Nε-(trans-3-(3-pyridyl)acryloyl)-L-lysine] | > 300 nM | 
Cc1ccc(S(=O)(=O)N(CC(C)C)C(CNCCNC(=O)CCc2ccccc2)C(=O)O)cc1 [Compound No. 206, (2R,2S)-2-[N-isobutyl-N-(4-methylbenzenesulfonyl)]-3-[2′-(N′-dihydrocinnamoyl)ethylamino]-propionic Acid] |  | > 300 nM
Cc1ccc(S(=O)(=O)N(CC(C)C)C(CCCCNC(=O)C2c3ccccc3-c3ccccc32)C(=O)O)cc1 (stereo not shown) [compound 83] | 105 nM | 
Cc1ccc(S(=O)(=O)N(CC(C)C)[C@@H](CCCCNC(=O)CC2c3ccccc3-c3ccccc32)C(=O)O)cc1 [compound 84] | 89.7 nM | 
Cc1ccc(S(=O)(=O)N(CC(C)C)[C@@H](CCCCNC(=O)C2c3ccccc3Oc3ccccc32)C(=O)O)cc1 [compound 85] | 14.5 nM | 
Cc1ccc(S(=O)(=O)N(CC(C)C)[C@@H](CCCCNC(=O)C(c2ccccc2)c2ccccc2)C(=O)O)cc1 [compound 86] | 171 nM | 
Cc1ccc(S(=O)(=O)N(CC(C)C)[C@@H](CCCCNC(=O)c2c[nH]c3ccccc23)C(=O)O)cc1 [compound 87] | > 1250 nM | 
Cc1ccc(S(=O)(=O)N(CC(C)C)[C@@H](CCCCNC(=O)c2cc3ccccc3[nH]2)C(=O)O)cc1 [compound 88] | > 625 nM | 
Cc1ccc(S(=O)(=O)N(CC(C)C)[C@@H](CCCCNC(=O)CCc2c[nH]c3ccccc23)C(=O)O)cc1 [compound 89] | 6.9 nM | 
Cc1ccc(S(=O)(=O)N(CC(C)C)C(CCCCNC(=O)C=Cc2ccccc2)C(=O)O)cc1 (stereo not shown) [compound 90] | 747 nM | 
Cc1ccc(S(=O)(=O)N(CC(C)C)[C@@H](CCCCNC(=O)CCc2ccccc2)C(=O)O)cc1 [compound 91] | 8 nM | 
COc1cccc(C=CC(=O)NCCCC[C@@H](C(=O)O)N(CC(C)C)S(=O)(=O)c2ccc([N+](=O)[O-])cc2)c1OC [compound 110, Nα-isobutyl-Nα-(4-nitrobenzenesulfonyl)-Nε-(2,3-dimethoxycinnamoyl)-L-lysine] | > 300 nM | 
CC(C)CN([C@@H](CCCCNS(=O)(=O)c1ccc([N+](=O)[O-])cc1)C(=O)O)S(=O)(=O)c1ccc([N+](=O)[O-])cc1 [compound 116, Nα-isobutyl-Nα,Nε-di-(4-nitrobenzenesulfonyl)-L-lysine] | > 300 nM | 
Nα-(9-fluorenylmethoxycarbonyl)-L-lysyl-Nα-(9-fluorenylmethoxy-carbonyl)-Nε-(2,4,6trimethylbenzenesulfonyl)-L-lysine [compound 26] | 63000 nM | 
